One compound from patent US20100197797A1 (priority 2009, published 2010) can be followed below.

The test system of one series is patients. The experiment in a line: Spontaneous / postmarketing reports. The series is classed as in vivo, human. The conditions noted are these: post-marketing, multiple drugs but also milnacipran hydrochloride only. The source says: However, because these adverse reactions were reported voluntarily from a population of uncertain size, it is not always possible to reliably estimate their frequency or establish a causal relationship to drug exposure.

The test system of series [1] is fibromyalgia. As to the kind of experiment: Study 1, 6-month fibromyalgia efficacy study. The series is classed as in vivo, human. An excerpt:
(§1) Enrolled patients met the American College of Rheumatology (ACR) criteria for fibromyalgia (a history of widespread pain for 3 months and pain present at 11 or more of the 18 specific tender point sites). […] Study 1 was six months in duration and Study 2 was three months in duration.
Patients were enrolled with a minimum mean baseline pain score of ≧50 mm on a 100 mm visual analog scale (VAS) ranging from 0 (“no pain”) to 100 (“worst possible pain”). The mean baseline pain score in this trial was 69.

The nature of series [2]: Drug interaction studies in healthy adult subjects. In kind it is in vivo, human. The method, then:
The drug interaction studies described below were conducted in healthy adult subjects.

In series [3] the test system is fibromyalgia. As to the kind of experiment: Study 2, 3-month fibromyalgia efficacy study. In kind it is in vivo, human.
Description: as §1
Patients were enrolled with a minimum mean baseline pain score of ≧40 mm on a 100-mm VAS ranging from 0 (“no pain”) to 100 (“worst possible pain”). The mean baseline pain score in this trial was 65.

The next series concerns healthy subjects. As to the kind of experiment: QTcF interval study, placebo- and positive-controlled. The series is classed as in vivo, human. The conditions noted are these: 600 mg/day. The source says:
After baseline and placebo adjustment, the maximum mean QTcF change was 8 ms (2-sided 90% CI, 3-12 ms).

A further series can be described thus: Solubility. In kind it is physicochemical.
The mark [4] stands for this setting: 100 mg and 200 mg daily, 3-month time point.

For the compound `CCN(CC)C(=O)C1(c2ccccc2)CC1CN.Cl` (racemic) [milnacipran hydrochloride, (±)-[1R(S),2S(R)]-2-(aminomethyl)-N,N-diethyl-1-phenylcyclopropanecarboxamide hydrochloride], the “outcome of acute overdoses” value in the series with patients is reported as “fatal outcomes have been reported”. Moreover, the “patients with at least 30% reduction in pain from baseline (VAS) and globally improved (PGIC) vs placebo” value with fibromyalgia [1] (setting [4]) and in the series with fibromyalgia [3] (setting [4]) was “More patients” in each case. The “proportion meeting composite response criteria: pain (VAS), physical function (SF-36 PCS), patient global assessment (PGIC), vs placebo” value with fibromyalgia [1] (Studies 1 and 2) was “larger proportion”. Further, the “proportion with simultaneous pain reduction of at least 30% (VAS) and PGIC much or very much improved, vs placebo” value with fibromyalgia [1] (Studies 1 and 2) is given as “larger proportion”. Besides, the “onset of decrease in pain” value with fibromyalgia [1] (both studies, some patients globally much or very much improved, stable dose) was “as early as week 1”. Further, the “benefit of 200 mg/day vs 100 mg/day” value in the series on fibromyalgia [1] (in vivo) and with fibromyalgia [3] (in vivo) was “did not confer greater benefit” each time. Also, in series [2] (200 mg/day and digoxin 0.2 mg/day Lanoxicaps, multiple-dose), the “pharmacokinetic interaction with digoxin” value is “no pharmacokinetic interaction”. Besides, the “change in pharmacokinetics of carbamazepine or its epoxide metabolite” value in series [2] (co-administration with milnacipran hydrochloride) is “No changes were observed”. Also, in series [2] (human, in vivo), the “adverse events after switching from clomipramine” value was “an increase in euphoria and postural hypotension”. In series [2] (intravenously administered digoxin (1 mg)), the “hemodynamic adverse effects in combination with digoxin” value was “Postural hypotension and tachycardia have been reported”. In series [2] (multiple doses, 100 mg/day), the “effect on pharmacokinetics of lithium” value is listed as “did not affect”. Further, the “pharmacokinetic interaction with lorazepam” value in series [2] (single dose 50 mg and lorazepam 1.5 mg) is on record as “no pharmacokinetic interaction”. Further, the “clinical significance of QTcF increase” value with healthy subjects was “not considered to be clinically significant”. In addition, the “maximum mean QTcF change” value in the series with healthy subjects (after baseline and placebo adjustment (2-sided 90% CI, 3-12 ms)) turned out to be 8 ms. For the same compound, the solubility entry in “Solubility” (chloroform) is “freely soluble”; in the series “Solubility” (diethyl ether), “sparingly soluble”; in the series “Solubility” (ethanol), “freely soluble”; in “Solubility” (methanol), “freely soluble”; in “Solubility” (methylene chloride), “freely soluble”; in the series “Solubility” (water), “freely soluble”.
